# “Also recorded” adds a separate entry of the source. Read-outs that look alike come from different tables or passages of the source.
# Columns and labels:
# L02 cells [1] = experiment: CCK-8 cell viability assay, L02 cells; type: cell-based, human
# Protocol: (§1) L02 and HepG2 cells were purchased from the China Infrastructure of Cell Line Resources (Beijing, China). They were cultured in Dulbecco’s modified Eagle’s medium (DMEM) high glucose medium (Gibco, Grand Island, NY, USA) supplemented with 10% (v/v) fetal bovine serum (FBS) (Gibco, Melbourne, VIC, Australia) and 1% U/ml of antibiotics (penicillin and streptomycin) at 37°C in an atmosphere containing 5% CO2.
# (§2) The viability of L02 and HepG2 cells was determined using the CCK-8 assay. L02 and HepG2 cells (1 × 10^4 cells/well) were seeded into 96-well plates for 12 h until they visibly reached confluence. Then, the adherent cells were treated with varying concentrations of psoralen (120.86, 161.34, 215.12, 286.83, 382.44, 509.92, 679.90, and 906.53 μmol/L), isopsoralen (161.15, 214.87, 286.64, 382.47, 509.88, 679.85, 906.53, and 1,208.64 μmol/L), bavachin (16.40, 21.95, 29.23, 38.97, 52.04, 69.37, 92.49, and 123.32 μmol/L), psoralidin (8.92, 11.89, 15.82, 21.17, 28.19, 37.58, 50.19, and 66.90 μmol/L), bavachinin (11.82, 15.72, 21.04, 28.01, 37.35, 49.88, 66.49, and 88.65 μmol/L), neobavaisoflavone (5.21, 9.30, 16.50, 29.41, 52.36, 93.07, 165.53, and 294.46 μmol/L), and bakuchiol (11.70, 15.60, 20.75, 27.77, 36.97, 49.30, 65.84, and 87.76 μmol/L). Consequently, these cells were incubated for 24 h, and 100 μl of 10% (v/v) CCK-8 medium solution was added to each well for 2 h. The absorbance (optical density (OD)) of the culture medium was detected at 450 nm using a Multiskan GO microplate reader (Thermo Fisher Scientific). Each experiment was repeated thrice, and each treatment was probed in at least six wells. The following equation was used to calculate the viability of the cells (%): Cell Viability (%)=ODcompound−ODblank/ODcontrol−ODblank×100%
# HepG2 cells [2] = experiment: CCK-8 cell viability assay, HepG2 cells; type: cell-based, human
# Protocol: as §1, §2
# L02 and HepG2 cells [3] = experiment: CCK-8 cell viability assay, L02 and HepG2 cells not distinguished; type: cell-based, human; settings: for IC50: read-out: IC50 value (approximate, discussion); for effect on cell viability / hepatocyte toxicity (in words): L02 and HepG2 cells
# Protocol: as §1
# The viability of L02 and HepG2 cells was determined using the CCK-8 assay. L02 and HepG2 cells (1 × 10^4 cells/well) were seeded into 96-well plates for 12 h until they visibly reached confluence. […] Consequently, these cells were incubated for 24 h, and 100 μl of 10% (v/v) CCK-8 medium solution was added to each well for 2 h. The absorbance (optical density (OD)) of the culture medium was detected at 450 nm using a Multiskan GO microplate reader (Thermo Fisher Scientific). Each experiment was repeated thrice, and each treatment was probed in at least six wells. The following equation was used to calculate the viability of the cells (%): Cell Viability (%)=ODcompound−ODblank/ODcontrol−ODblank×100%
# L02 and HepG2 cells [4] = type: cell-based, human
# Protocol: (§3) L02 and HepG2 cells were cultured in 6-well plates at a density of 2 × 10^5 cells/well. Subsequently, they were incubated with bavachin, psoralidin, bavachinin, neobavaisoflavone, and bakuchiol for 24 h, and the cell supernatant was collected. Lastly, aspartate aminotransferase (AST), alanine aminotransferase (ALT), and ALP were detected using a CX4 Pro automatic biochemical analyzer (Beckman, Brea, CA, USA).
# L02 cells [5] = experiment: Annexin V-FITC/PI flow cytometry apoptosis assay, L02 cells; type: cell-based, human; settings: 48 h
# Protocol: (§4) First, L02 and HepG2 cells were cultured in 6-well plates at a density of 5 × 10^5 cells/well. Then, they were treated with bavachin (17, 34, and 68 μmol/L), psoralidin (11.5, 23, and 46 μmol/L), bavachinin (15, 30, and 60 μmol/L), neobavaisoflavone (23.5, 47, and 94 μmol/L), and bakuchiol (13, 26, and 52 μmol/L) for 48 h, harvested, and washed with PBS. The apoptosis rate was measured using Pharmingen™ FITC Annexin V Apoptosis Detection Kit I (BD, 556,547, USA) following the instructions from the manufacturer. With the use of a FACSCalibur cytometer (Becton Dickinson, San Jose, CA, USA), 1 × 10^4 cells were acquired and analyzed.
# L02 and HepG2 cells [6] = experiment: Annexin V-FITC/PI flow cytometry apoptosis assay, L02 and HepG2 cells not distinguished; type: cell-based, human
# Protocol: as §4
# L02 cells [7] = experiment: HCS LipidTOX Green intracellular lipid assay, L02 cells; type: cell-based, human; settings: 24 h
# Protocol: (§5) Here, L02 and HepG2 cells were plated at a density of […] in 96-well plates. Then, they were treated with bavachin (17, 34, and 68 μmol/L), psoralidin (11.5 23, and 46 μmol/L), bavachinin (15, 30, and 60 μmol/L), neobavaisoflavone (23.5, 47, and 94 μmol/L), and bakuchiol (13, 26, and 52 μmol/L) for 24 h. Then Hoechst 33342, eBioscience™ JC-1 Mitochondrial Membrane Potential Dye, CellROX Deep Red, and HCS LipidTOX™ Green Phospholipidosis Detection Reagent kits were used to characterize their cell counts, nuclear area, MMP, ROS, and intracellular lipid. Consequently, multi-parameter cytotoxicity was analyzed through high-content screening (HCS) analysis (IN Cell Analyzer 2500 HS; Cytiva, Marlborough, MA, USA). Then, a 20× objective was used to collect all images. Three independent wells were examined for each treatment, and 16 fields per well were captured during the analysis. Lastly, HCS analysis was performed using Automated Image and Cell Analysis software (IN Cell Analyzer 2000; USA).
# HepG2 cells [8] = experiment: HCS LipidTOX Green intracellular lipid assay, HepG2 cells; type: cell-based, human; settings: 24 h
# Protocol: as §5
# HepG2 cells [9] = experiment: HCS CellROX Deep Red ROS assay, HepG2 cells; type: cell-based, human
# Protocol: as §5
# L02 and HepG2 cells [10] = type: cell-based; settings: human, 24 h
# Protocol: as §5
# L02 cells [11] = experiment: ALP, ALT and AST in cell culture supernatant, L02 cells; type: cell-based, human
# Protocol: as §3
# L02 and HepG2 cells [12] = experiment: HCS LipidTOX Green intracellular lipid assay, L02 and HepG2 cells not distinguished; type: cell-based, human
# Protocol: as §5
# L02 cells [13] = experiment: HCS CellROX Deep Red ROS assay, L02 cells; type: cell-based, human; settings: only at 68 μmol/L, 24 h
# Protocol: as §5
# HepG2 cells [14] = tested on: HepG2 cells; set-up: method as in Yu et al., 2020; settings: another report; ref Yu et al., 2020; read-out: concentration inhibiting 50% cell viability; cited from earlier work
# HepG2 cells [15] = experiment: ALP, ALT and AST in cell culture supernatant, HepG2 cells; type: cell-based, human; settings: 46 μmol/L, 24 h
# Protocol: as §3
# L02 and HepG2 cells [16] = experiment: HCS JC-1 mitochondrial membrane potential (MMP) assay, L02 and HepG2 cells; type: cell-based, human; settings: 60 μmol/L; 24 h
# Protocol: as §5
# [17] = Homo sapiens, L02, CCK-8, incubation 24 h or 48 h, read-out: IC50 toward L02 cells
# [18] = Homo sapiens, HepG2, CCK-8, incubation 24 h or 48 h, read-out: IC50 toward HepG2 cells
# [19] = Homo sapiens, HepG2, cell line not distinguished
compound,measurement,setting,value
"C=C[C@@](C)(/C=C/c1ccc(O)cc1)CCC=C(C)C [Bakuchiol, bakuchiol]",IC50,L02 cells [1]; [17],25.9 µM
same,IC50,HepG2 cells [2]; [18],34.5 µM
same,IC50,L02 and HepG2 cells [3]; [19],~25 µM
same,effect on cell viability / hepatocyte toxicity (in words),L02 and HepG2 cells [3],more potent inhibitory effects on cell viability than other compounds
same,"effect on ALP, ALT, and AST contents (in words, discussion)",L02 and HepG2 cells [4],little effect
same,"increase of ALP, ALT, and AST levels (discussion)",L02 and HepG2 cells [4],five times
same,necrotic cell percentages,"L02 cells [5]; 52 μmol/L, Figure 7I",34.6%
same,cell early apoptosis percentage,L02 and HepG2 cells [6],markedly and progressively increased
same,effect on cell apoptosis (in words),L02 and HepG2 cells [6],induced apoptosis in a dose-dependent manner
same,"lipid accumulation, times higher than control",L02 cells [7]; 13 μmol/L,1.88 times
same,"lipid accumulation, times higher than control",L02 cells [7]; 26 μmol/L,2.18 times
same,"lipid accumulation, times higher than control",L02 cells [7]; 52 μmol/L,3.37 times
same,"lipid accumulation, times higher than control",HepG2 cells [8]; first of three doses (13 μmol/L),1.27 times
same,"lipid accumulation, times higher than control",HepG2 cells [8]; second of three doses (26 μmol/L),2.37 times
same,"lipid accumulation, times higher than control",HepG2 cells [8]; third of three doses (52 μmol/L),5.84 times
same,ROS generation,HepG2 cells [9],promoted ROS generation
same,"effect on ROS induction, L02 cells compared with HepG2 cells",L02 and HepG2 cells [10]; 52 μmol/L,stronger effect on ROS induction in L02 cells than HepG2 cells
"CC(C)=CCc1cc2c(cc1O)O[C@H](c1ccc(O)cc1)CC2=O [Bavachin, bavachin]",IC50,L02 cells [1]; [17],33.9 µM
same,IC50,HepG2 cells [2]; [18],34.8 µM
same,IC50,L02 and HepG2 cells [3]; [19],~30 µM
same,effect on cell viability / hepatocyte toxicity (in words),L02 and HepG2 cells [3],intense repression of cell viability
same,"ALP, ALT, and AST contents",L02 cells [11],increased
same,apoptotic cell percentage,"L02 cells [5]; L02 cells, increased from 6.7%, concentration not given",44.47%
same,cell early apoptosis percentage,L02 and HepG2 cells [6],markedly and progressively increased
same,"effect on lipid accumulation, L02 cells compared with HepG2 cells","L02 and HepG2 cells [12]; human, 24 h, 68 μmol/L",stronger inducing effect on lipid accumulation in the HepG2 cells
same,ROS level,L02 cells [13],increased
"O=c1ccc2ccc3occc3c2o1 [Isopsoralen, isopsoralen]",IC50,"L02 cells [1]; Homo sapiens, L02, read-out: IC50 toward L02 cells",77.9 µM
same,IC50,"HepG2 cells [2]; Homo sapiens, HepG2, read-out: IC50 toward HepG2 cells",174 µM
same,effect on cell viability / hepatocyte toxicity (in words),L02 and HepG2 cells [3],little hepatocyte toxicity; also recorded: very low or no toxicity
"CC(C)=CCc1cc(-c2coc3cc(O)ccc3c2=O)ccc1O [Neobavaisoflavone, neobavaisoflavone]",IC50,L02 cells [1]; [17],47.8 µM
same,IC50,HepG2 cells [2]; [18],51.7 µM
same,effect on cell viability / hepatocyte toxicity (in words),L02 and HepG2 cells [3],intense repression of cell viability
same,"ALP, ALT, and AST contents",L02 cells [11],increased
same,cell early apoptosis percentage,L02 and HepG2 cells [6],markedly and progressively increased
same,effect on cell apoptosis (in words),L02 and HepG2 cells [6],induced apoptosis in a dose-dependent manner
same,"effect on ROS induction, L02 cells compared with HepG2 cells",L02 and HepG2 cells [10],stronger effect on ROS induction in L02 cells than HepG2 cells
"O=c1ccc2cc3ccoc3cc2o1 [Psoralen, psoralen]",IC50,L02 cells [1]; [17],284 µM
same,IC50,HepG2 cells [2]; [18],739 µM
same,effect on cell viability / hepatocyte toxicity (in words),L02 and HepG2 cells [3],very low or no toxicity
same,effect on cell viability / hepatocyte toxicity (in words),L02 and HepG2 cells [3]; listed as psoralen,little hepatocyte toxicity
same,IC50,HepG2 cells [14],~400 µM
"CC(C)=CCc1cc2c(cc1O)oc(=O)c1c3ccc(O)cc3oc21 [Psoralidin, psoralidin]",IC50,L02 cells [1]; [17],23.1 µM
same,IC50,HepG2 cells [2]; [18],23.4 µM
same,IC50,L02 and HepG2 cells [3]; [19],~25 µM
same,effect on cell viability / hepatocyte toxicity (in words),L02 and HepG2 cells [3],more potent inhibitory effects on cell viability than other compounds
same,"ALP level, times higher than control",HepG2 cells [15],5.7 times
same,"AST level, times higher than control",HepG2 cells [15],5.4 times
same,"increase of ALP, ALT, and AST levels (discussion)",L02 and HepG2 cells [4],five times
same,"induction of ALP, ALT, and AST contents",L02 and HepG2 cells [4],more than fivefold
same,effect on cell apoptosis (in words),L02 and HepG2 cells [6],little effect on cell apoptosis
same,apoptotic cell percentage,"L02 and HepG2 cells [6]; 46 μmol/L, 48 h, Figure 7C,D",17%
same,"effect on lipid accumulation, L02 cells compared with HepG2 cells","L02 and HepG2 cells [12]; human, 24 h",more substantial effect on lipid accumulation in L02 cells than HepG2 cells
bavachinin,IC50,"L02 cells [1]; CCK-8, incubation 24 h or 48 h, read-out: IC50 toward L02 cells",29.8 µM
same,IC50,"HepG2 cells [2]; CCK-8, incubation 24 h or 48 h, read-out: IC50 toward HepG2 cells",29.1 µM
same,effect on cell viability / hepatocyte toxicity (in words),L02 and HepG2 cells [3],intense repression of cell viability
same,IC50,L02 and HepG2 cells [3]; cell line not distinguished,~30 µM
same,"ALP, ALT, and AST contents","L02 cells [11]; L02 cells, high dosage, 24 h",increased
same,cell apoptosis at low dose concentration,"L02 and HepG2 cells [6]; 15 μmol/L, 48 h",induced cell apoptosis
same,cell early apoptosis percentage,"L02 and HepG2 cells [6]; as the concentration increased, compared with the control",markedly and progressively increased
same,"effect on lipid accumulation, L02 cells compared with HepG2 cells",L02 and HepG2 cells [12]; 60 μmol/L,more substantial effect on lipid accumulation in L02 cells than HepG2 cells
same,lipid accumulation levels,"L02 and HepG2 cells [12]; L02 and HepG2 cells, 24 h, p < 0.05, p < 0.01",promoted lipid accumulation
same,ROS level,"HepG2 cells [9]; HepG2 cells, 30 and 60 μmol/L, 24 h",increased
same,MMP levels,L02 and HepG2 cells [16],reduced
